# Data as given in patent US9393221B2, “Methods and compounds for reducing intracellular lipid storage” (THE GENERAL HOSPITAL CORPORATION, priority 2011, dated 2016).
# Where a name gives a salt, the structure may show the parent alone.
# Test system: ATGL-KO iPSCs
# Experiment: High throughput iPSC chemical screening, Oil Red O (ORO) lipid accumulation; further: test concentration or dose not given here
# Format: cell-based, mouse
# Details: normalized ORO level vs DMSO-treated cells; compound present during 7 days differentiation, 96-well; negative = decrease in lipid accumulation
row,Compound,Z-score
1,C[C@@H]1C[C@@H]([C@H](O)CC2CC(=O)NC(=O)C2)C(=O)[C@@H](C)C1 [Cycloheximide],56.1385
2,NS(=O)(=O)c1cc2c(cc1Cl)NC(CC1CCCC1)NS2(=O)=O (stereo not shown) [Cyclopenthiazide],−1.4107
3,CN(C)CCOC(=O)C(c1ccccc1)C1(O)CCCC1 (stereo not shown) [Cyclopentolate hydrochloride],1.252
4,CN1CCC(=C2c3ccccc3C=Cc3ccccc32)CC1 [Cyproheptadine hydrochloride],−1.6013
5,CC(=O)O[C@]1(C(C)=O)CC[C@H]2[C@@H]3C=C(Cl)C4=CC(=O)[C@@H]5C[C@@H]5[C@]4(C)[C@H]3CC[C@@]21C [Cyproterone acetate],−1.2528
6,N[C@@H]1CONC1=O [D-cycloserine],−1.0332
7,CN(C)/N=N/c1[nH]cnc1C(N)=O [Dacarbazine],−0.3016
8,C#C[C@]1(O)CC[C@H]2[C@@H]3CCC4=Cc5oncc5C[C@]4(C)[C@H]3CC[C@@]21C [Danazol],−1.2973
9,O=C1CN(/N=C/c2ccc(-c3ccc([N+](=O)[O-])cc3)o2)C(O)=N1 [Dantrolene sodium salt],−0.3347
10,Nc1ccc(S(=O)(=O)c2ccc(N)cc2)cc1 [Dapsone],−0.4061
11,COc1cccc2c1C(=O)c1c(O)c3c(c(O)c1C2=O)C[C@@](O)(C(C)=O)C[C@@H]3O[C@H]1C[C@H](N)[C@H](O)[C@H](C)O1 [Daunorubicin hydrochloride],28.7571
12,N=C(N)N1CCc2ccccc2C1 [Debrisoquin sulfate],0.2228
13,C[N+](C)(C)CCCCCCCCCC[N+](C)(C)C [Decamethonium bromide],−0.0864
14,CC(=O)N(O)CCCCCNC(=O)CCC(=O)N(O)CCCCCNC(=O)CCC(=O)N(O)CCCCCN [Deferoxamine mesylate],12.8786
15,C[C@H](CCC(=O)O)[C@H]1CC[C@H]2[C@@H]3C(=O)C[C@@H]4CC(=O)CC[C@]4(C)[C@H]3CC(=O)[C@]12C [Dehydrocholic acid],−1.006
16,CC(=O)O[C@H]1CC[C@@]2(C)C(=CC[C@@H]3[C@@H]2CC[C@]2(C)C(=O)CC[C@@H]32)C1 [Dehydroisoandosterone 3-acetate],−0.697
17,CCN1C[C@]2(COC)CC[C@H](OC)[C@]34C5C[C@@H]6[C@@H](OC)C[C@@]7(OCO[C@@]7(C13)[C@@H](O)C24)C5[C@H]6OC (stereo partly shown) [Delcorine],−1.4115
18,CCN1C[C@]2(COC)CC[C@H](O)[C@]34C1[C@@](O)([C@@H](OC)[C@H]23)[C@@]1(O)C[C@H](OC)[C@H]2C[C@@H]4[C@@H]1[C@H]2OC [Delsoline],−1.3301
19,CCN1C[C@]2(C)CC[C@H](OC)[C@@]34C1[C@]1(OCO[C@@]15C[C@H](OC)[C@H]1C[C@]3(O)[C@@H]5[C@H]1OC)[C@@H](OC(C)=O)[C@H]24 [Deltaline],−1.2966
20,CN(CCCCCCCCCCN(C)C(=O)Oc1cccc([N+](C)(C)C)c1)C(=O)Oc1cccc([N+](C)(C)C)c1 [Demecarium bromide],−0.6009
21,CN(C)[C@@H]1C(O)=C(C(N)=O)C(=O)[C@@]2(O)C(O)=C3C(=O)c4c(O)ccc(Cl)c4[C@@H](O)[C@H]3C[C@@H]12 [Demeclocycline hydrochloride],1.787
22,CC[N+](CC)(CC(=O)Nc1c(C)cccc1C)Cc1ccccc1 [Denatonium benzoate],−0.1971
23,C[C@]12CC[C@H]3[C@@H](CCC4=CC(=O)CC[C@@]43C)[C@@H]1CC[C@@H]2C(=O)CO [Deoxycorticosterone],0.6523
24,Cc1cc(N)c2ccccc2[n+]1CCCCCCCCCC[n+]1c(C)cc(N)c2ccccc21 [Dequalinium dichloride],42.6725

row,Compound,Z-score
1,CNCCCN1c2ccccc2CCc2ccccc21 [Desipramine hydrochloride],0.2168
2,CC(=O)OCC(=O)[C@@]1(O)[C@H](C)C[C@H]2[C@@H]3CCC4=CC(=O)C=C[C@]4(C)[C@@]3(F)[C@@H](O)C[C@@]21C [Dexamethasone acetate],−1.3076
3,CC1=NS(=O)(=O)c2cc(Cl)ccc2N1 [Diazoxide],0.5969
4,CCCCOc1cc(C(=O)NCCN(CC)CC)c2ccccc2n1 [Dibucaine],0.2274
5,NS(=O)(=O)c1cc(Cl)c(Cl)c(S(N)(=O)=O)c1 [Dichlorphenamide],0.1624
6,O=C(O)Cc1ccccc1Nc1c(Cl)cccc1Cl [Diclofenac sodium],−1.137
7,Cc1onc(-c2c(Cl)cccc2Cl)c1C(=O)N[C@@H]1C(=O)N2[C@@H]1SC(C)(C)[C@@H]2C(=O)O [Dicloxacillin sodium salt],−0.1893
8,O=c1oc2ccccc2c(O)c1Cc1c(O)c2ccccc2oc1=O [Dicumarol],1.966
9,"CCN(CC)CCOC(=O)C1(C2CCCCC2)CCCCC1 [Dicyclomine hydrochloride, reference compound]",−2.1533
10,C/C=C(/C(=C/C)c1ccc(O)cc1)c1ccc(O)cc1 [Dienestrol],0.1268
11,CCN(CC)C(=O)N1CCN(C)CC1 [Diethylcarbamazine citrate],−1.1872
12,CC/C(=C(/CC)c1ccc(O)cc1)c1ccc(O)cc1 [Diethylstilbestrol],−0.977
13,CC(=O)OCC(=O)[C@@]1(OC(C)=O)[C@@H](C)C[C@H]2[C@@H]3C[C@H](F)C4=CC(=O)C=C[C@]4(C)[C@@]3(F)[C@@H](O)C[C@@]21C [Diflorasone Diacetate],0.6842
14,O=C(O)c1cc(-c2ccc(F)cc2F)ccc1O [Diflunisal],−0.3972
15,C[C@]12CC[C@H](O)C[C@H]1CC[C@@H]1[C@@H]2CC[C@]2(C)[C@@H](C3=CC(=O)OC3)CC[C@]12O [Digitoxigenin],−0.9264
16,C[C@]12CC[C@H](O)C[C@H]1CC[C@@H]1[C@@H]2C[C@@H](O)[C@]2(C)[C@@H](C3=CC(=O)OC3)CC[C@]12O [Digoxigenin],−1.0521
17,C[C@H]1O[C@@H](O[C@H]2[C@@H](O)C[C@H](O[C@H]3[C@@H](O)C[C@H](O[C@H]4CC[C@@]5(C)[C@H](CC[C@@H]6[C@@H]5C[C@@H](O)[C@]5(C)[C@@H](C7=CC(=O)OC7)CC[C@]65O)C4)O[C@@H]3C)O[C@@H]2C)C[C@H](O)[C@@H]1O [Digoxin],−0.815
18,CC(C)[C@@]1(NC(=O)[C@@H]2C[C@@H]3c4cccc5[nH]cc(c45)C[C@H]3N(C)C2)O[C@@]2(O)[C@@H]3CCCN3C(=O)[C@H](Cc3ccccc3)N2C1=O [Dihydroergocristine mesylate],0.9157
19,CN[C@@H]1[C@H](O[C@H]2[C@H](O[C@H]3[C@H](O)[C@@H](O)[C@H](NC(=N)N)[C@@H](O)[C@@H]3NC(=N)N)O[C@@H](C)[C@]2(O)CO)O[C@@H](CO)[C@H](O)[C@H]1O [Dihydrostreptomycin sulfate],1.253
20,COc1cc(C(=O)OCCCN2CCCN(CCCOC(=O)c3cc(OC)c(OC)c(OC)c3)CC2)cc(OC)c1OC [Dilazep dihydrochloride],0.1967
21,CN(C(=O)C(Cl)Cl)c1ccc(OC(=O)c2ccco2)cc1 [Diloxanide furoate],−0.9785
22,COc1ccc([C@@H]2Sc3ccccc3N(CCN(C)C)C(=O)[C@@H]2OC(C)=O)cc1 [Diltiazem hydrochloride],−0.974
23,CN(C)CCCSC(=N)N [Dimaprit dihydrochloride],−1.2574
24,CN(C)CCOC(c1ccccc1)c1ccccc1.Cn1c(=O)c2[nH]c(Cl)nc2n(C)c1=O [Dimenhydrinate],−0.7776

row,Compound,Z-score
1,CC1(C)OC(=O)NC1=O [Dimethadione],−0.9493
2,CCCCc1cc2ccccc2c(OCCN(C)C)n1 [Dimethisoquin hydrochloride],0.4631
3,CCCCC[C@H](O)/C=C/[C@@H]1[C@@H](C/C=C\CCCC(=O)O)[C@@H](O)C[C@H]1O [Dinoprost trometamol],0.7612
4,COc1ccc(C(=O)c2ccccc2O)c(O)c1 [Dioxybenzone],−1.6584
5,O=C(Nc1ccccc1)OCC(CN1CCCCC1)OC(=O)Nc1ccccc1 (stereo not shown) [Diperodon hydrochloride],−0.6048
6,C[N+]1(C)CCC(=C(c2ccccc2)c2ccccc2)CC1 [Diphemanil methylsulfate],0.6045
7,CN(C)CCOC(c1ccccc1)c1ccccc1 [Diphenhydramine hydrochloride],1.308
8,OC(CCCN1CCCCC1)(c1ccccc1)c1ccccc1 [Diphenidol hydrochloride],−0.7294
9,CN1CCC(OC(c2ccccc2)c2ccccc2)CC1 [Diphenylpyraline hydrochloride],0.246
10,CNCC(O)c1ccc(OC(=O)C(C)(C)C)c(OC(=O)C(C)(C)C)c1 (stereo not shown) [Dipivefrin hydrochloride],1.363
11,Cn1c(=O)c2c(ncn2CC(O)CO)n(C)c1=O (stereo not shown) [Diprophylline],−0.3767
12,OCCN(CCO)c1nc(N2CCCCC2)c2nc(N(CCO)CCO)nc(N3CCCCC3)c2n1 [Dipyridamole],0.4282
13,Cc1c(N(C)CS(=O)(=O)[O-])c(=O)n(-c2ccccc2)n1C.[Na+] [Dipyrone],1.061
14,CC(C)N(CCC(C(N)=O)(c1ccccc1)c1ccccn1)C(C)C (stereo not shown) [Disopyramide],−1.1535
15,CCN(CC)C(=S)SSC(=S)N(CC)CC [Disulfiram],15.5036
16,C[C@]12N[C@H](Cc3ccccc31)c1ccccc12 [Dizocilpine maleate],−1.1505
17,CC(CCc1ccc(O)cc1)NCCc1ccc(O)c(O)c1 (stereo not shown) [Dobutamine hydrochloride],−0.4732
18,CCN[C@H]1C[C@H](C)S(=O)(=O)c2sc(S(N)(=O)=O)cc21 [Dorzolamide hydrochloride],1.587
19,CN(C)CC/C=C1\c2ccccc2CSc2ccccc21 [Dosulepin hydrochloride],0.00689
20,COc1cc2nc(N3CCN(C(=O)C4COc5ccccc5O4)CC3)nc(N)c2cc1OC (stereo not shown) [Doxazosin mesylate],−1.0121
21,CN(C)CCC=C1c2ccccc2COc2ccccc21 [Doxepin hydrochloride],−1.0091
22,COc1cccc2c1C(=O)c1c(O)c3c(c(O)c1C2=O)C[C@@](O)(C(=O)CO)C[C@@H]3O[C@H]1C[C@H](N)[C@H](O)[C@H](C)O1 [Doxorubicin hydrochloride],32.6438
